The target in assay [1] is HCV RNA-dependent RNA polymerase (NS5B) (Hepatitis C virus genotype 1b (isolate BK) (HCV), UniProt P26663). The assay can be described thus: RNA-Dependent RNA HCV NS5B (polymerase) Assay and IC50 Determination. The following applies: purified HCV NS5B polymerase, polyA:U16 substrate, 32P-UTP incorporation; for pIC50: read-out: IC50; for IC50: IC50 (μM). Type of assay: biochemical. The method in brief: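 Purified NS5B was incubated with 0.5 uM polyA:U16, 10 μM UTP plus ^32P-UTP in 50 mM Hepes-KOH pH 7.5, 5 mM MgCl2, 5 mM DTT, 2% glycerol and 0.01% Triton X-100. Inhibitor reactions ran 60 min at 37° C, and radiolabelled RNA product was quantified after filter capture. IC50 values were obtained from concentration series.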

The test system of assay [2] is HCV subgenomic RNA replicon in Huh-luc/neo-ET cells. Kind of assay: HCV Replicon Assay and EC50 Determination. In kind it is cell-based. The following applies: Hepatitis C virus, 72 hours, luciferase reporter activity. The protocol:
HCV Replicon Assay and EC50 Determination.
HCV replicon assay is based on the luciferase reporter cell line (Huh-luc/neo-ET). This reporter cell line is a human liver carcinoma cell line (Huh-7) stably transfected with an autonomously replicating bicistronic HCV subgenomic RNA replicon (Lohmann et al., 1999, Science, 285, 110-113). Inhibition of HCV RNA replication was monitored through analysis of reporter luciferase activity. Briefly, HCV replicon cells were incubated with inhibitors for 72 hours at 37° C. After the incubation, duplicate plates were treated and incubated in parallel for assessment of cellular toxicity by XTT staining and anti-HCV activity by measurement of luciferase reporter activity. Either human interferon alpha 2B or ribavirin was used as a reference compound. EC50 values were determined using GraFit (Erithaus software) or Excel.
Table 2 presents EC50 data obtained using this HCV replicaon assay to test representative compounds. Data are presented as follows: “+++” means <0.1 μM; “++” means ≥0.1 μM and <1.0 μM; “+” means ≥1.0 μM.

Structures are written as SMILES. pEC50, pIC50: −log10 of the molar value. Like-named read-outs stand apart in the source and are kept apart here.

Sequence of HCV RNA-dependent RNA polymerase (NS5B) (P26663 2420-3010): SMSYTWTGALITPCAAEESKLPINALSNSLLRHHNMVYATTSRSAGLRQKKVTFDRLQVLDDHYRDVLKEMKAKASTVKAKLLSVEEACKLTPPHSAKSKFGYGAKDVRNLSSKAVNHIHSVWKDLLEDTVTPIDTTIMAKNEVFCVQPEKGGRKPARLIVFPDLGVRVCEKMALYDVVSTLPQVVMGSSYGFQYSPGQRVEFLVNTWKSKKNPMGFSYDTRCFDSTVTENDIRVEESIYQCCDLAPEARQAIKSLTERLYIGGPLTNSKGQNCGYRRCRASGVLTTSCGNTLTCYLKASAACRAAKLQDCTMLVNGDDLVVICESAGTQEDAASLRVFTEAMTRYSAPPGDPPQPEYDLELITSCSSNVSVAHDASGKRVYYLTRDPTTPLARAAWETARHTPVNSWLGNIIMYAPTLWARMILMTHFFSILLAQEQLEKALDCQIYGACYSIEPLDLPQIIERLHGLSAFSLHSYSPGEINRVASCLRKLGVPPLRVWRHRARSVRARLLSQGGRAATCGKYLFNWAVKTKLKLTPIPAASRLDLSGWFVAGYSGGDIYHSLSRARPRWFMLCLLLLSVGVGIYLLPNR

For orientation: pIC50 means the negative decadic logarithm of the IC50, by convention in mol/L. For orientation: pEC50 means −log10 of the EC50, conventionally taken in molar units. Low values mean a large EC50, high ones a small EC50. On to `CNC(=O)c1c(-c2ccc(F)cc2)oc2cc(N(CCOCCOCCOC(C)C(=O)O)S(C)(=O)=O)c(C3CC3)cc12` (stereo not shown) [Compound 23-6B, 2-{2-[2-(2-{[5-Cyclopropyl-2-(4-fluoro-phenyl)-3-methylcarbamoyl-benzofuran-6-yl]-methanesulfonyl-amino}-ethoxy)-ethoxy]-ethoxy}-propionic Acid], for which the pIC50 in assay [1] was 6.00 to 7.00. This compound also showed a pEC50 in assay [2] of over 7.00.
The like results for `CNC(=O)c1c(-c2ccc(F)cc2)oc2cc(N(CCOCCOCc3ccc(C(=O)/C=C(\O)C(=O)O)cc3)S(C)(=O)=O)c(C3CC3)cc12` [Compound 02-10F, 4-{4-[2-(2-{[5-Cyclopropyl-2-(4-fluoro-phenyl)-3-methylcarbamoyl-benzofuran-6-yl]-methanesulfonyl-amino}-ethoxy)-ethoxymethyl]-phenyl}-2-hydroxy-4-oxo-but-2-enoic Acid] were, in that order, under 6.00 and over 7.00.
As a reminder, the IC50 is the concentration that inhibits the measured activity by half. Read a low IC50 as higher potency. `CNC(=O)c1c(-c2ccc(F)cc2)oc2cc(N(CCOCCOCCOCCO)S(C)(=O)=O)c(C3CC3)cc12` [Compound 04-5, 5-Cyclopropyl-2-(4-fluorophenyl)-6-(N-(2-(2-(2-(2-hydroxyethoxy)-ethoxy)-ethoxy)-ethyl) Methylsulfonamido)-N-methylbenzofuran-3-carboxamide]: the IC50 in assay [1] was over 1 µM. Besides, in assay [2], the negative-log EC50 (pEC50) was 6.00 to 7.00.
`CNC(=O)c1c(-c2ccc(F)cc2)oc2cc(N(CC(=O)NCC(=O)NCc3cccc(C(=O)/C=C(\O)C(=O)O)c3)S(C)(=O)=O)c(C3CC3)cc12` [Compound 09-14A, 4-(3-{[2-(2-{[5-Cyclopropyl-2-(4-fluoro-phenyl)-3-methylcarbamoyl-benzofuran-6-yl]-methanesulfonyl-amino}-acetylamino)-acetylamino]-methyl}-phenyl)-2-hydroxy-4-oxo-but-2-enoic Acid]: the negative logarithm of the IC50 (pIC50) in assay [1] is 6.00 to 7.00. The same compound had a pEC50 in assay [2] of 6.00 to 7.00.
Regarding `CNC(=O)c1c(-c2ccc(F)cc2)oc2cc(N(CCOCCOCc3ccccc3C(=O)O)S(C)(=O)=O)c(C3CC3)cc12` [Compound 06-7A, 2-[2-(2-{[5-Cyclopropyl-2-(4-fluoro-phenyl)-3-methylcarbamoyl-benzofuran-6-yl]-methanesulfonyl-amino}-ethoxy)-ethoxymethyl]-benzoic Acid], the pIC50 in assay [1] is 6.00 to 7.00. In assay [2], this compound gave a negative-log EC50 (pEC50) of over 7.00.
The like results for `CNC(=O)c1c(-c2ccc(F)cc2)oc2cc(N(CCOCCCOCc3cccc(C(=O)/C=C(\O)C(=O)O)c3)S(C)(=O)=O)c(C3CC3)cc12` [Compound 03-8B, 4-{3-[3-(2-{[5-Cyclopropyl-2-(4-fluoro-phenyl)-3-methylcarbamoyl-benzofuran-6-yl]-methanesulfonyl-amino}-ethoxy)-propoxymethyl]-phenyl}-2-hydroxy-4-oxo-but-2-enoic Acid] were, in that order, under 6.00 and over 7.00.
Taken in the same sequence, the figures for `CNC(=O)c1c(-c2ccc(F)cc2)oc2cc(N(CCOCCOCc3ccc(F)c(C(=O)O)c3)S(C)(=O)=O)c(C3CC3)cc12` [Compound 17A-8A, 5-[2-(2-{[5-Cyclopropyl-2-(4-fluoro-phenyl)-3-methylcarbamoyl-benzofuran-6-yl]-methanesulfonyl-amino}-ethoxy)-ethoxymethyl]-2-fluoro-benzoic Acid] were 6.00 to 7.00 and over 7.00.
The like results for `CNC(=O)c1c(-c2ccc(F)cc2)oc2cc(N(CCCCCOCc3ccc(C(=O)O)cc3)S(C)(=O)=O)c(C3CC3)cc12` [Compound 16-7, 4-(5-{[5-Cyclopropyl-2-(4-fluoro-phenyl)-3-methylcarbamoyl-benzofuran-6-yl]-methanesulfonyl-amino}-pentyloxymethyl)-benzoic Acid] were, in that order, 6.00 to 7.00 and over 7.00.
For the compound `CNC(=O)c1c(-c2ccc(F)cc2)oc2cc(N(CCOCCOCCOCCOCCOCCOCc3cccc(C(=O)/C=C(\O)C(=O)O)c3)S(C)(=O)=O)c(C3CC3)cc12` [Compound 02-10E, 4-(3-{2-[2-(2-{2-[2-(2-{[5-Cyclopropyl-2-(4-fluoro-phenyl)-3-methylcarbamoyl-benzofuran-6-yl]-methanesulfonyl-amino}-ethoxy)-ethoxy]-ethoxy}-ethoxy)-ethoxy]-ethoxymethyl}-phenyl)-2-hydroxy-4-oxo-but-2-enoic Acid], the pIC50 in assay [1] was under 6.00. For the same compound, the negative logarithm of the EC50 (pEC50) in assay [2] is 6.00 to 7.00.
In assay [1], `CNC(=O)c1c(-c2ccc(F)cc2)oc2cc(N(CCOC(=O)CNC(=O)CCCC(=O)O)S(C)(=O)=O)c(C3CC3)cc12` [Compound 08-6, 4-[(2-{[5-Cyclopropyl-2-(4-fluoro-phenyl)-3-methylcarbamoyl-benzofuran-6-yl]-methanesulfonyl-amino}-ethoxycarbonylmethyl)-carbamoyl]-butyric Acid] had an IC50 of 0.1 to 1 µM. The pEC50 in assay [2] was 6.00 to 7.00.
Regarding `CNC(=O)c1c(-c2ccc(F)cc2)oc2cc(N(CC(=O)NC(C)C(=O)NCc3cccc(C(=O)C=C(O)C(=O)O)c3)S(C)(=O)=O)c(C3CC3)cc12` (stereo not shown) [Compound 09-14F, 4-(3-{[2-(2-{[5-Cyclopropyl-2-(4-fluoro-phenyl)-3-methylcarbamoyl-benzofuran-6-yl]-methanesulfonyl-amino}-acetylamino)-propionylamino]-methyl}-phenyl)-2-hydroxy-4-oxo-but-2-enoic Acid], the negative-log IC50 (pIC50) in assay [1] is under 6.00. In assay [2], the pEC50 was 6.00 to 7.00.
Take `CNC(=O)c1c(-c2ccc(F)cc2)oc2cc(N(CCOCCCc3cccc(C(=O)/C=C(\O)C(=O)O)c3)S(C)(=O)=O)c(C3CC3)cc12` [Compound 22-12, 4-(3-(3-(2-(N-(5-cyclopropyl-2-(4-fluorophenyl)-3-(methylcarbamoyl)benzofuran-6-yl)methylsulfonamido)-ethoxy)-propyl)-phenyl)-2-hydroxy-4-oxobut-2-enoic Acid]: the negative-log IC50 (pIC50) in assay [1] was under 6.00. The compound further showed a pEC50 in assay [2] of over 7.00.
With `CNC(=O)c1c(-c2ccc(F)cc2)oc2cc(N(CCCCCCCc3ccc(C(=O)OC)cc3)S(C)(=O)=O)c(C3CC3)cc12` [Compound 13-7D, 4-(7-{[5-Cyclopropyl-2-(4-fluoro-phenyl)-3-methylcarbamoyl-benzofuran-6-yl]-methanesulfonyl-amino}-heptyl)-benzoic Acid Methyl Ester], the negative logarithm of the IC50 (pIC50) in assay [1] was 6.00 to 7.00.
Same read-out and setting: in the case of `CCOC(=O)c1ccc(COCCOCCN(c2cc3oc(-c4ccc(F)cc4)c(C(=O)NC)c3cc2C2CC2)S(C)(=O)=O)c2ccccc12` [Compound 20-7, 4-[2-(2-{[5-Cyclopropyl-2-(4-fluoro-phenyl)-3-methylcarbamoyl-benzofuran-6-yl]-methanesulfonyl-amino}-ethoxy)-ethoxymethyl]-naphthalene-1-carboxylic Acid Ethyl Ester] it was 6.00 to 7.00; in that of `CNC(=O)c1c(-c2ccc(F)cc2)oc2cc(N(CC(=O)NCC(=O)NCCCCC(=O)OC)S(C)(=O)=O)c(C3CC3)cc12` [Compound 10-3A, 5-[2-(2-{[5-Cyclopropyl-2-(4-fluoro-phenyl)-3-methylcarbamoyl-benzofuran-6-yl]-methanesulfonyl-amino}-acetylamino)-acetylamino]-pentanoic Acid Methyl Ester], under 6.00; in that of `CNC(=O)c1c(-c2ccc(F)cc2)oc2cc(N(CCOCCOCCOCCOCCOCc3ccc(C(=O)/C=C(\O)C(=O)O)cc3)S(C)(=O)=O)c(C3CC3)cc12` [Compound 02-10I, 4-{4-[2-(2-{2-[2-(2-{[5-Cyclopropyl-2-(4-fluoro-phenyl)-3-methylcarbamoyl-benzofuran-6-yl]-methanesulfonyl-amino}-ethoxy)-ethoxy]-ethoxy}-ethoxy)-ethoxymethyl]-phenyl}-2-hydroxy-4-oxo-but-2-enoic Acid], under 6.00.
For `CCOC(=O)c1ccc(OCCCCCCN(c2cc3oc(-c4ccc(F)cc4)c(C(=O)NC)c3cc2C2CC2)S(C)(=O)=O)cc1` [Compound 15-7, 4-(6-{[5-Cyclopropyl-2-(4-fluoro-phenyl)-3-methylcarbamoyl-benzofuran-6-yl]-methanesulfonyl-amino}-hexyloxy)-benzoic Acid Ethyl Ester], the pIC50 in assay [1] was 6.00 to 7.00.
In the case of `CNC(=O)c1c(-c2ccc(F)cc2)oc2cc(N(CCOCCOCCc3ccccc3C(=O)O)S(C)(=O)=O)c(C3CC3)cc12` [Compound 11-6A, 2-{2-[2-(2-{[5-Cyclopropyl-2-(4-fluoro-phenyl)-3-methylcarbamoyl-benzofuran-6-yl]-methanesulfonyl-amino}-ethoxy)-ethoxy]-ethyl}-benzoic Acid], the pIC50 in assay [1] is over 7.00.
Still for that read-out and setting: in the case of `CNC(=O)c1c(-c2ccc(F)cc2)oc2cc(N(CCCOCCOCc3cccc(C(=O)/C=C(\O)C(=O)O)c3)S(C)(=O)=O)c(C3CC3)cc12` [Compound 03-8A, 4-{3-[2-(3-{[5-Cyclopropyl-2-(4-fluoro-phenyl)-3-methylcarbamoyl-benzofuran-6-yl]-methanesulfonyl-amino}-propoxy)-ethoxymethyl]-phenyl}-2-hydroxy-4-oxo-but-2-enoic Acid] it was 6.00 to 7.00.
